Legend:
[1] = system: NMDA-type glutamatergic receptors from rat cortex; assay: Current induced by NMDA in oocytes of Xenopus laevis injected with poly(A+) mRNA from rat cortex (two-electrode voltage clamp); format: cell-based; conditions: NMDA 3×10^−4M with 3×10^−5M glycine, −60 mV, magnesium-free OR2; read-out: IC50 (concentration of product which inhibits the current induced by NMDA by 50%)
Method: Effect of Compounds on the Current Induced by NMDA in Oocytes of Xenopus laevis Injected with Poly(A^+) mRNA from Rat Cortex
Electrophysiological recordings are carried out on oocytes of Xenopus laevis injected with poly(A^+) mRNA from rat cortex and expressing, inter alia, NMDA-type glutamatergic receptors from rat cortex, in a plexiglass recording chamber continuously perfused with OR2 solution not containing magnesium (which blocks the opening of the NMDA receptor channel) and at ambient temperature. The inward current induced by an application of NMDA is recorded at a resting potential of −60 mV, using a standard two-electrode voltage clamp technique. The NMDA (3×10^−4M) is applied with the perfusion solution in the presence of 3×10^−5M glycine for 30 seconds every 5 minutes, at a constant perfusion rate of 3 ml/min. The amplitude of the current induced by NMDA is measured at the peak of the current. The tested compounds are applied at increasing doses to the same oocyte in the perfusion solution 45 seconds before, 30 seconds during and 30 seconds after the application of 3×10^−4M NMDA in the presence of 3×10^−5M glycine every 5 minutes. The amplitude of the current induced by NMDA in the presence of compound is normalised and expressed as a percentage of that induced in the same oocyte in the absence of product, which corresponds to 100% response. […]

[2] = system: CD1 mouse; assay: Object recognition in the CD1 mouse; format: in vivo; conditions: doses of 1 and 3 mg/kg PO, 60 minutes before each of the 3 phases
Excerpt: Object Recognition in the CD1 Mouse
The object recognition test (Behay. Brain Res., 1988, 31, 47-59) is based on the spontaneous exploratory activity of the animal and has the characteristics of episodic memory in humans. This memory test is sensitive to ageing (Eur. J. Pharmacol., 1997, 325, 173-180) and to cholinergic dysfunctions (Pharm. Biochem. Behay., 1996, 53(2), 277-283) and is based on the differences in the exploration of 2 objects of fairly similar shape—one familiar, the other new. The test procedure, which has been adapted for the CD1 mouse, comprises 3 phases which take place in the same test enclosure. During the first phase, which lasts 40 minutes, the mice are habituated to the environment. During the second phase, which takes place the next day, an object is placed in the enclosure and the mouse is free to explore it. Once the duration of that exploration has reached 20 seconds, the mouse is taken out of the enclosure. In the course of the third phase (5 minutes), 24 hours later, the same object is presented (acquiring the status of a “familiar” object), as well as a new object. The duration of exploration, expressed in seconds, is timed for each of the two objects.

[3] = system: AMPA receptor; assay: Membrane depolarisation brought about by AMPA in primary cultures of rat neurons (fluorescence); format: cell-based; conditions: read-out: EC2X (the concentration of compound which doubles the membrane potential brought about by AMPA); cultured rat embryonic neurons, AMPA 3 to 100 μM
Method: Study of the Effect of Compounds on the Membrane Depolarisation Brought about by AMPA in Primary Cultures of Rat Neurons
The test comprises the in vitro measurement, by means of fluorescence, of the membrane depolarisation brought about in cultured rat embryonic neurons by the joint action of AMPA and the compound under test, compared to the action of AMPA alone. The brain cells are placed in culture and kept in a cell culture incubator for 18 days. After incubation, the culture medium is withdrawn and replaced with fluorescent probe loading medium for measurement of the membrane potential (20 μl; membrane potential kit from Molecular Devices) and left at ambient temperature for 1 hour. The base fluorescence of the wells is read (FDSS apparatus from Hamamatsu) and the cells are then injected with AMPA (20 μl; concentration range: from 3 to 100 μM) and the action of the AMPA is measured kinetically. The test compound is then introduced into the wells (20 μl; in a concentration range crossed with that of AMPA) and the action of the compound is measured kinetically. At the end of each of the two periods of kinetic measurement, the result for each well is the average reading over the final 15 seconds of the period. The curves are plotted of the effect of AMPA at the various concentrations of compound. […]

| Structure (SMILES) | IC50 [1] [µM] | exploration of the new object compared to the familiar object [2] | EC2X [3] [µM] | melting point [°C] |
| --- | --- | --- | --- | --- |
| O=S1(=O)NCCNc2ccc(Oc3ccccc3)cc21 [Example 1, 8-phenoxy-2,3,4,5-tetrahydro-1,2,5-benzothiadiazepine 1,1-dioxide] | 9 | significantly greater exploration of the new object | 25 |  |
| O=S1(=O)NCCNc2ccc(Oc3ccc(OCc4ccccc4)cc3)cc21 [Example 8, 8-[4-(benzyloxy)phenoxy]-2,3,4,5-tetrahydro-1,2,5-benzothiadiazepine 1,1-dioxide] |  |  |  | 134 |

— patent US8236790B2, “Benzothiadiazepine compounds, a process for their preparation and pharmaceutical compositions containing them” (Les Laboratories Servier, priority 2009, dated 2012)
